The record followed here is patent US6585967B2, “Adhesive treatment for tinea cruris” (Closure Medical Corporation, priority 2001, dated 2003).

Structures are written as SMILES.

The data set in a line: Observation of haloprogin / 2-octyl cyanoacrylate monomer composition after preparation. Format: physicochemical. As to the method: A 2-octyl cyanoacrylate monomer composition is prepared by adding 30 mg of haloprogin, an anti-fungal agent, to 2 mL of 2-octyl cyanoacrylate monomer. The mixture is sealed in a glass vial and stirred. The characteristics of the composition are observed at about one minute after preparation and later at least twenty-four hours after preparation.

Consider `Clc1cc(Cl)c(OCC#CI)cc1Cl` [haloprogin], for which the “premature polymerization of the monomer (stability)” value (30 mg haloprogin in 2 mL 2-octyl cyanoacrylate monomer, at least twenty-four hours after preparation) was “does not cause premature polymerization”. For the setting “30 mg in 2 mL 2-octyl cyanoacrylate monomer, about one minute and at least twenty-four hours after preparation”, the “solubility of haloprogin in the monomer” value is “soluble in the monomer”.
